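Exposure lasted 48 hours, with cells grown in 96-well plates and compounds tested at five concentrations. GI50 is the concentration that inhibits growth by half.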 The source made the active and inactive calls. No stated cut-off is given here; in the data, active = GI50 up to about 1.1 µM and inactive = higher.
What was measured:
Assay in all cases: inhibition of tumour cell growth, NCI panel, 48 h
[1] = system: IGROV-1
[2] = system: RPMI-8226
[3] = system: HCT-116
[4] = system: SK-OV-3
[5] = system: NCI/ADR-RES
[6] = system: NCI-H460
[7] = system: SK-MEL-2
[8] = system: A549
[9] = system: M14
[10] = system: KM12
[11] = system: OVCAR-4
[12] = system: OVCAR-5
[13] = system: SF-539
[14] = system: T47D
[15] = system: COLO 205
[16] = system: HCC 2998
[17] = system: MOLT-4
[18] = system: SF-268
[19] = system: NCI-H23
[20] = system: OVCAR-3

| SMILES | GI50 [1] | GI50 [2] | GI50 [3] | GI50 [4] | GI50 [5] | GI50 [6] | GI50 [7] | GI50 [8] | GI50 [9] | GI50 [10] | GI50 [11] | GI50 [12] | GI50 [13] | GI50 [14] | GI50 [15] | GI50 [16] | GI50 [17] | GI50 [18] | GI50 [19] | GI50 [20] |
| --- | --- | --- | --- | --- | --- | --- | --- | --- | --- | --- | --- | --- | --- | --- | --- | --- | --- | --- | --- | --- |
| COc1ccc(N2C(=O)C3c4[nH]c5ccccc5c4C4C(C)CCCC4C3C2=O)cc1 (stereo not given) | 10 µM (inactive) | 12.8 µM (inactive) | 13 µM (inactive) | > 81.3 µM (inactive) | 14.9 µM (inactive) | > 63.8 µM (inactive) | 44.6 µM (inactive) | > 45.1 µM (inactive) | > 41.5 µM (inactive) | 13.8 µM (inactive) | 33.7 µM (inactive) | > 63.8 µM (inactive) | > 43.4 µM (inactive) | > 78.7 µM (inactive) | > 50.7 µM (inactive) | > 100 µM (inactive) | 7.21 µM (inactive) | 41 µM (inactive) | 54.7 µM (inactive) | 26.1 µM (inactive) |
| O=C(N/N=C\C=C\c1ccc([N+](=O)[O-])o1)C(=O)N/N=C\C=C\c1ccc([N+](=O)[O-])o1 | 78.2 µM (inactive) | 28.4 µM (inactive) | 25.1 µM (inactive) | > 100 µM (inactive) | 26 µM (inactive) | > 100 µM (inactive) | > 100 µM (inactive) | > 100 µM (inactive) | 32.1 µM (inactive) | > 100 µM (inactive) | 34.9 µM (inactive) | > 100 µM (inactive) | 3.19 µM (inactive) | 36.2 µM (inactive) | > 100 µM (inactive) | > 100 µM (inactive) | 24.1 µM (inactive) | > 100 µM (inactive) | > 100 µM (inactive) | 24.1 µM (inactive) |
| CC1CCCC(C(=O)CC2CC(=O)NC(=O)C2)C1=O (stereo not given) | > 100 µM (inactive) | > 100 µM (inactive) | > 100 µM (inactive) | > 100 µM (inactive) | > 100 µM (inactive) | > 100 µM (inactive) | > 100 µM (inactive) | > 100 µM (inactive) | > 100 µM (inactive) | > 100 µM (inactive) | > 100 µM (inactive) | > 100 µM (inactive) | > 100 µM (inactive) | > 100 µM (inactive) | > 100 µM (inactive) | > 100 µM (inactive) | > 100 µM (inactive) | > 100 µM (inactive) | > 100 µM (inactive) | > 100 µM (inactive) |
| NC(=O)[C@H](Cc1ccc(O)cc1)NC1=C(Cl)C(=O)c2c(O)ccc(O)c2C1=O | 2.07 µM (inactive) | 2.25 µM (inactive) | 1.57 µM (inactive) | > 10 µM (inactive) | 2.8 µM (inactive) | 7.76 µM (inactive) | 9.02 µM (inactive) | 7.73 µM (inactive) | 3.14 µM (inactive) | 2.67 µM (inactive) | 1.83 µM (inactive) | 8.89 µM (inactive) | 2.17 µM (inactive) | 2.15 µM (inactive) | 1.5 µM (inactive) | 2.37 µM (inactive) | 0.55 µM (active) | 3.7 µM (inactive) | 3.26 µM (inactive) | 2.14 µM (inactive) |
| CC(CC[C@@H](O)C(C)(C)O)C1[C@@H](O)CC2(C)C3CC(O)C4C(C)(C)[C@@H](OC5OC(CO)C(O)C(O)C5O)CC[C@@]45C[C@@]35CC[C@]12C (stereo not given in full) | > 10 µM (inactive) | > 10 µM (inactive) | > 10 µM (inactive) | > 10 µM (inactive) | > 10 µM (inactive) | > 10 µM (inactive) | > 10 µM (inactive) | > 10 µM (inactive) | > 10 µM (inactive) | > 10 µM (inactive) | > 10 µM (inactive) | > 10 µM (inactive) | > 10 µM (inactive) | > 10 µM (inactive) | > 10 µM (inactive) | > 10 µM (inactive) | > 10 µM (inactive) | > 10 µM (inactive) | > 10 µM (inactive) | > 10 µM (inactive) |
